Test results: publication PMC10708539, “Two Antimicrobial Peptides Derived from Bacillus and Their Properties” (Molecules, 2023)
Ends that are not written are not given here.

Legend:
[1] = tested on: Sa. enterica ACCC 01996; assay: MIC by double dilution method; type: cell-based, Salmonella enterica; conditions: 96-well plate, culture OD600 0.5 mixed 1:1 with peptide, 37 °C 12–18 h, OD600 read-out, minimum concentration of 100% growth inhibition, three parallel sets
Experimental: (§1) The minimum inhibitory concentrations (MICs) of purified antimicrobial peptides against St. aureus ACCC 10499, B. cereus ACCC 04315, and Sa. enterica ACCC 01996 were determined by the double dilution method. The indicator bacteria cultures were diluted to an OD600 of 0.5 respectively, of which 50 μL of them were added into the sterile 96-well plate, and then 50 μL antimicrobial peptide samples with different concentrations were mixed with each indicator bacterium at a 1:1 ratio. The experiment was performed in three parallel sets. After incubation at 37 °C for 12–18 h, the OD600 value was determined by an Automatic growth curve analyzer (Bioscreen C, Turku, Finland), and the minimum concentration of 100% inhibition of indicator bacteria growth was used as the minimum inhibitory concentration.

[2] = tested on: B. cereus ACCC 04315; type: cell-based, Bacillus cereus
Experimental: as §1

[3] = tested on: St. aureus ACCC 10499; type: cell-based, Staphylococcus aureus
Experimental: as §1

[4] = tested on: trypsin; assay: Protease stability of antimicrobial peptides; type: in vitro ADME; conditions: mixed 1:1 with 1 mg/mL trypsin, water bath 37 °C 1 h, then boiling water bath 5 min; control without protease; read-out inhibition circles against St. aureus ACCC 10499
Experimental: (§2) Appropriate amounts of purified antimicrobial peptide samples were placed in a water bath at 40 °C, 60 °C, 80 °C, 90 °C, and 100 °C for 30 min and high-temperature autoclave sterilization at 121 °C for 15 min respectively, to carry out temperature sensitivity tests. St. aureus ACCC 10499 was used as an indicator bacterium, and untreated samples were used as controls, with three parallel groups for each sample to observe the change in antibacterial activity. Similarly, the pH of the same amount for the antimicrobial peptide samples was adjusted to 2~10 in intervals of 1, and the neutral pH was 7.0 as the control. The samples with a different pH were kept in a water bath at 37 °C for 30 min. St. aureus ACCC 10499 was used as an indicator bacterium to detect the resistance of the antimicrobial peptide to an acid and base. In addition, appropriate antimicrobial peptide samples were mixed with 1 mg/mL solution of protease K, trypsin, and pepsin at 1:1, and were kept in a water bath at 37 °C for 1 h, followed by a boiling water bath for 5 min to inactivate the enzymes. The samples without protease treatment were used as controls and the changes in antibacterial activity were observed.

[5] = target: protease K (Parengyodontium album, UniProt P06873); assay: Protease stability of antimicrobial peptides; type: in vitro ADME; conditions: mixed 1:1 with 1 mg/mL protease K, water bath 37 °C 1 h, then boiling water bath 5 min; control without protease; read-out inhibition circles against St. aureus ACCC 10499
Experimental: as §2

[6] = tested on: pepsin; assay: Protease stability of antimicrobial peptides; type: in vitro ADME; conditions: mixed 1:1 with 1 mg/mL pepsin, water bath 37 °C 1 h, then boiling water bath 5 min; control without protease; read-out inhibition circles against St. aureus ACCC 10499
Experimental: as §2

protease K, sequence (P06873 106-384): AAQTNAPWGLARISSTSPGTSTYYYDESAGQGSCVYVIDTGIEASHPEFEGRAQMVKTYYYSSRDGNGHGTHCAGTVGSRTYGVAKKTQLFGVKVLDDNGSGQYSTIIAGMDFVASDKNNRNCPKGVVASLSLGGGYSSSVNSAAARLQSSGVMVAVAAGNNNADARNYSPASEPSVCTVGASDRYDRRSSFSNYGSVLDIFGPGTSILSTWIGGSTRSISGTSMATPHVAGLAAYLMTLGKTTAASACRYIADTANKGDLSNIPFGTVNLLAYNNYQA

Sequence: FSGSGSGTAFTLR [Peptide-II]
- MIC [1]: 16 mg/L
- MIC ([1]; listed as peptide-II): 8 mg/L
- MIC [2]: 64 mg/L
- MIC [3]: 16 mg/L
- Antibacterial activity after treatment with trypsin [4]: no significant effect
- Antibacterial activity after treatment with protease K [5]: significantly reduced
- Antibacterial activity after treatment with pepsin [6]: no significant effect

Sequence: VFLENVLR [Peptide-I]
- MIC [1]: 8 mg/L
- MIC [2]: 32 mg/L
- MIC [3]: 64 mg/L
- Antibacterial activity after treatment with trypsin [4]: insensitive
- Antibacterial activity after treatment with protease K [5]: insensitive
- Antibacterial activity after treatment with pepsin [6]: insensitive
